From US10617118B2, “Low foam surfactant composition and methods of making the same” (Momentive Performance Materials Inc., priority 2015, dated 2020)

Assays:
[1] = tested on: Velvetleaf (Abutilion theophrasti); assay: Effect of adjuvant on glyphosate-IPA efficacy on velvetleaf (spray application); assay type: in vivo; conditions: 1.0 wt % Gly-IPA, adjuvant 0.1 wt %, 100 L/ha, simulated rain 2 hours after treatment, visual scale of 0-100%
Description: Velvetleaf plants were grown from seed indoor, under full sunlight intensity lamps, in individual pots, and then thinned to one plant per pot. Plants were fertilized as necessary (NPK 20-20-20). Glyphosate spray applications were applied when the plants reached the 3-4 true leaf stage.
Velvetleaf was treated with 1.0 wt % Gly-IPA, with and without adjuvant, at a spray volume equivalent to 100 L/ha. When adjuvant was used, it was included in the spray at 0.1 wt %. Applications were made using a track sprayer with a TeeJet 8002 nozzle. Simulated rain (2.5 cm) was applied 2 hours after treatment. Glyphosate efficacy was determined 7 and 14 days after treatment (DAT). using a visual scale of 0-100%, where 0 indicates no effect and 100 indicates total weed control.

[2] = Spreading: spread diameter of 10 μL drop on polystyrene Petri-dish; assay type: physicochemical; conditions: Table 11, after 30 seconds
Description: Spreading was determined using between 0.1% and 0.4% (actives) surfactant. Solutions were prepared in Milli-Pore water (deionized) where a 10 μL drop was placed on a polystyrene surface (Petri-dish) and the spread diameter, in mm is determined after 30 seconds.

Row | Molecule | Glyphosate-IPA efficacy on velvetleaf, 7 DAT ([1]; 7 DAT) [%] | Glyphosate-IPA efficacy on velvetleaf, 14 DAT ([1]; 14 DAT) [%] | Spread Diameter (mm) 0.2 Wt % [2] [mm]
1 | CC(C)N.O=C(O)CNCP(=O)(O)O [None, glyphosate-isopropylamine] | 33 | 37 | –
2 | Triton X-100 | – | – | 7
